Measured values: ChEMBL document CHEMBL1122753, “Interaction of N4-hydroxy-2'-deoxycytidylic acid with thymidylate synthetase” (J Med Chem, 1984)
Active and inactive are the calls of the source. The rule behind the calls is not given here.

Tests used:
Thymidylate synthase [1] = target: T1, Thymidylate synthase (Homo sapiens, UniProt P04818); test: The apparent association constant (Ki) with dTMP synthetase enzyme from chick embryo in the absence of CH2-H4 folate was evaluated; Active; parameters: species or system Gallus gallus; settings: target entry is the homologue from another species
Target sequence in this assay (P04818 whole entry): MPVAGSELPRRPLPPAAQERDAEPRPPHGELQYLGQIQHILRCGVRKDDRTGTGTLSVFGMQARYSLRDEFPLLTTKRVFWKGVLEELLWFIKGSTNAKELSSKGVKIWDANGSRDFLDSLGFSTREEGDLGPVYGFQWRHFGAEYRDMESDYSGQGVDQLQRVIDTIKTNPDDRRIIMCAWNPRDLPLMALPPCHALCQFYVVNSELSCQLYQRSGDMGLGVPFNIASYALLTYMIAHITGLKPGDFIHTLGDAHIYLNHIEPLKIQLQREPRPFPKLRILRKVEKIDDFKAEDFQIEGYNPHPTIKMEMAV

Thymidylate synthase [2] = target: T1, Thymidylate synthase; test: The apparent association constant (Ki) with dTMP synthetase enzyme from chick embryo in the absence of CH2-H4 folate was evaluated using conventional spectrophotometric assay; Active; parameters: species or system Gallus gallus
Target sequence in this assay (P04818 whole entry): as above

Thymidylate synthase [3] = target: T2, Thymidylate synthase (Lactobacillus casei, UniProt P00469); test: The apparent association constant (Ki) with dTMP synthetase enzyme from chick embryo in the absence of CH2-H4 folate was evaluated; parameters: species or system Lacticaseibacillus casei
T2 sequence (P00469 whole entry): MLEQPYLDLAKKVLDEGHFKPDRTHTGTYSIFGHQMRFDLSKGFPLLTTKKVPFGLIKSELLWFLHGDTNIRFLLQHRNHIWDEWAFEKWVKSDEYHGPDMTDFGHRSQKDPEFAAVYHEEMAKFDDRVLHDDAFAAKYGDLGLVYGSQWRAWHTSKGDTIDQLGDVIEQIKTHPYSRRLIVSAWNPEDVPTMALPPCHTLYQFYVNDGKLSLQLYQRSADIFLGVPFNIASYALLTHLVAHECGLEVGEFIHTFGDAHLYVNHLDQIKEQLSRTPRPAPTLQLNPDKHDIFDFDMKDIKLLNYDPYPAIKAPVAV

Thymidylate synthase [4] = target: T1, Thymidylate synthase; test: Compound (4.5 uM) was evaluated for the percent binding to the excess dTMP synthetase (3.9 uM and 7.8 uM sites) enzyme from chick embryo, […] of CH2-H4 folate. This complex was incubated 25 degrees Celsius for 2 hours.; settings: Gallus gallus; target entry is the homologue from another species
Target sequence in this assay (P04818 2-313 limits assumed): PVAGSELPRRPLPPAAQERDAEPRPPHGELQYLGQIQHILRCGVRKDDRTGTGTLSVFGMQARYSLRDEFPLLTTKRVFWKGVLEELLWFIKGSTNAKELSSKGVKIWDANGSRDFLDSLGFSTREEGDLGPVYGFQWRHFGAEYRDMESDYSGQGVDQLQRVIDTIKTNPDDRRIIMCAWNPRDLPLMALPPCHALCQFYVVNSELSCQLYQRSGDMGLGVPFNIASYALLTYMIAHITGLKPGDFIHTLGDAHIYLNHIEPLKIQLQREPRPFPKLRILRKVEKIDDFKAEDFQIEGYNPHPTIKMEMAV

Thymidylate synthase [5] = target: T1, Thymidylate synthase; test: Compound was evaluated for time-dependent loss of activity with use of 15 nM of dTMP synthetase enzyme from chick embryo in the presence of […] of CH2-H4 folate at about 20 seconds; format: functional; settings: Gallus gallus; target entry is the homologue from another species
Target sequence in this assay (P04818 2-313 limits assumed): as above

Thymidylate synthase [6] = target: T1, Thymidylate synthase; test: Compound was evaluated for the dissociation of the radiolabeled N4-HOdCMP by competitive binding to the excess dTMP synthetase; Active; settings: Gallus gallus
Target sequence in this assay (P04818 2-313 limits assumed): as above

`Cc1cn([C@H]2C[C@H](O)[C@@H](COP(=O)(O)O)O2)c(=O)[nH]c1=O` [THYMIDINE MONOPHOSPHATE] was tested, and the Ki (Thymidylate synthase [1]) was “Active”.
With `O=c1ccn([C@H]2C[C@H](O)[C@@H](COP(=O)(O)O)O2)c(=O)[nH]1` [DEOXYURIDINE MONOPHOSPHATE] the Ki (Thymidylate synthase [2]) was “Active”.
In the case of `O=c1nc(NO)ccn1[C@H]1C[C@H](O)[C@@H](COP(=O)(O)O)O1`, the Ki (Thymidylate synthase [3]) is reported as 8 µM, the Binding (Thymidylate synthase [4]) is reported as 90% and the Loss of activity (Thymidylate synthase [5]) is reported as 50%. The Dissociation (Thymidylate synthase [6]) was “Active”.
